Laboratory results reported in patent US8501246B2, “Cosmetic composition containing lingonberry extract and its uses” (Beijing Gingko Group Biological Technology, Co., Ltd., priority 2007, dated 2013).

Tests used:
Assay type in all cases: cell-based
[1] = biological target: T1, B16 melanocytes' tyrosinase (Mus musculus, UniProt P11344); assay: Inhibition rate of B16 melanocytes' tyrosinase activity (L-dopa oxidation, OD 475 nm); details: 3 days, n = 6
T1 construct: The cells were dissolved by 1% Troton X-100; host or cells: B16 melanocytes (melanoma cells)
T1 sequence (P11344 19-533): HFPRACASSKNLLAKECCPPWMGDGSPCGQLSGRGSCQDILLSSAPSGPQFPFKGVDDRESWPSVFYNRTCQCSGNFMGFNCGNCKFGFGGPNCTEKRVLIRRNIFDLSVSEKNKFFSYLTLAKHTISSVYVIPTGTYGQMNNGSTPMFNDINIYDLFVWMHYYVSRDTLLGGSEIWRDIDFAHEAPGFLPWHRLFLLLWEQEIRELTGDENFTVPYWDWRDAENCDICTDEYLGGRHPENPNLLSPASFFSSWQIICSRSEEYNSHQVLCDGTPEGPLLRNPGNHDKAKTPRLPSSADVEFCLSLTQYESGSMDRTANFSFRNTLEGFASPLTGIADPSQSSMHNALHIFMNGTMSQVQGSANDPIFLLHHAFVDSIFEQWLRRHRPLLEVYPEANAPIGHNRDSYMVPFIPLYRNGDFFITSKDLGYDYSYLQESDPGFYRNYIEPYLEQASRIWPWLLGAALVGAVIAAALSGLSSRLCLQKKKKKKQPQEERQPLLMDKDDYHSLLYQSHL
Description: (§1) B16 melanocytes(from SIBCB) were cultivated with RPMI-1640 culture fluid containing 10% newborn calf serum and penicillium—streptomycin under the condition of about 37° C., 5% CO2. The melanocytes were digested with about 0.125% trypsin (Difco, US) to be passaged or tested when the cell fusion reached more than 80%.
Tyrosinase activity is determined by the speed of dopa being oxidized into dopaquinone. L-dopa was used as catalysis substrate. Optical density (OD) of dopaquinone was determined at 475 nm by improved Marlinez-Esparza method. (Ando H, Itoh A, Mishima Y et al., Correlation between the number of melanosomes, tyrosinase mRNA levels, and tyrosinase activity cultured murine melanoma cells in response to various melanogenesis regulatory agents. J Cell Physiol, 1995, 163: 608-614.). The higher of the OD, the stronger of the tyrosinase.
The lingonberry extract III was prepared by the method in example 3, other materials were all bought from market.
After 3 days of effects of tested substance, the supernatant was deserted and the remainder was washed for 3 times with pH 7.0 PBS after centrifuging at 1000 rpm for 5 min every time. The cells were dissolved by 1% Troton X-100 400 μl adding in every well of the cultured plate. 100 μl solution in every well was taken and then added into 96-well cultured plate. After pre-temperature at 37° C., 100 μl 1.7% L-dopa (sigma, US) was added into every well. The OD A value then was determined every 10 min within 1 hour at 475 nm and 37° C., using blank as zero adjustment.
Calculated every tested agents' inhibition rate of B16 melanocytes' tyrosinase activity using the following formula: inhibition rate of melanocytes' tyrosinase activity=(1−OD of tested group/OD of control group)*100%
Experiment method was the same as example 6. The lingonberry extract I, II and III used as tested substance were prepared by the method in example 1, 2 and 3 respectively.

B16 melanocytes [2] = assay: MTT cell multiplication / cell survival ratio of B16 melanocytes; details: blank = 100, n = 6
Description: B16 melanocytes (from SIBCB) were cultivated with RPMI-1640 culture fluid containing about 10% newborn calf serum and penicillium—streptomycin under the condition of about 37° C., about 5% CO2. Digest the melanocytes with about 0.125% trypsin (Difco, US) when the cell fusion reached more than about 80%.
The activity of melanocytes multiplication was determined by measurement of […] (MTT). The B16 melanocytes at densities of about 1×10^5 were inoculated in 24-well cell cultured plate. The culture fluid was changed next day and the tested substances in different concentration were added individually: the lingonberry extract III prepared in example 3 (comprised anthocyanidin about 10%, OPC about 35% and resveratrol about 10%), arbutin bought from the market, and blank as control group.
After 20 hours cultivation and adding about 0.15 ml MTT, the cells were cultivated continuously for about 4 hours. Centrifuged at 3000 rpm for about 10 min and deserted the supernatant, cultivated cells in every well were added DMSO (about 1%) about 1 ml and shook for dissolving thoroughly. Then about 150 μl cultivated cells aspiration were added into 96-well cell cultured plate. The OD value of the aspiration was measured with MQX200 micro-plate spectrophotometer (Bio-Tek, US), at 570 nm excitation wave length and 630 nm reference wave length.
Calculated the inhibition ratio of tested agents on melanocytes using the following formula: melanocytes multiplication inhibition ratio=(1−OD of tested group/OD of control group)*100%
The experimental method was the same as example 4. The lingonberry extract III was prepared by the method in example 3, pine bark extract and grape seed extract were both bought from market, blank was used as control group.

B16 melanocytes [3] = assay: Inhibition rate of melanin content (melanogenesis) in B16 melanocytes; details: Melanocyte, 72 hours, n = 4
Description: as §1, with “containing about” for “containing”, “of” for “of about”, “than about” for “than”
After the cells dissolved in strong base solution, melanin was dissolved and then the OD was tested. Melanin content was determined by Hosoi improved method. (Victoria M, Virador, Nobuhiko Kobayashi et al, A standardized protocol for assessing regulators of pigmentation. Analytical Biochemistry, 1999, 270:207˜219.)
B16 melanocytes (1×10^5) were cultivated in 6-well cultured plate. After 24 hours incubation the solution was changed and different kinds of tested substances in different concentration were added respectively. The lingonberry extract III was prepared by the method in example 3, other substances were all bought from market.
After 72 hours, reactants were washed by PBS for 2 times, dried by air-drying, dissolved into 400 μl 1N NaOH (containing 1% DMSO), heated at 80° C. for 1 hour and then cooled. The OD was tested by enzyme-linked immunosorbent assay instrument at 475 nm.
Calculated every tested agents' inhibition rate of melanin content using the following formula: inhibition rate of melanin content=[1−(OD of tested group/well cell density of tested group)/(OD of control group/well cell density of control group)]*100%
Experiment method was the same as example 7. The lingonberry extract I, II and III used as tested substance were prepared by the method in example 1, 2 and 3 respectively.

inhibition at 1 µg/mL ([1]; 1 mg/L): 7.19% | inhibition at 5 µg/mL ([1]; 5 mg/L): 10.4 ± 2.97% | inhibition at 10 µg/mL ([1]; 10 mg/L): 20.5 ± 1.63% | inhibition at 20 µg/mL ([1]; 20 mg/L): 46.4 ± 2.53% | inhibition at 30 µg/mL ([1]; 30 mg/L): 53.3 ± 2.27%
SMILES: OC[C@H]1O[C@@H](Oc2ccc(O)cc2)[C@H](O)[C@@H](O)[C@@H]1O [arbutin]
cell survival ratio (B16 melanocytes [2]; 20 mg/L): 110.72 ± 0.41% | cell survival ratio (B16 melanocytes [2]; 40 mg/L): 94.30 ± 0.45% | cell survival ratio (B16 melanocytes [2]; 60 mg/L): 91.74 ± 0.39% | cell survival ratio (B16 melanocytes [2]; 80 mg/L): 79.66 ± 1.08% | inhibition at 1 µg/mL (B16 melanocytes [3]; 1 mg/L): 7.27 ± 2.29% | inhibition at 5 µg/mL (B16 melanocytes [3]; 5 mg/L): 7.59 ± 0.35% | inhibition at 10 µg/mL (B16 melanocytes [3]; 10 mg/L): 6.23 ± 0.86% | inhibition at 20 µg/mL (B16 melanocytes [3]; 20 mg/L): 10.8 ± 0.33% | inhibition at 30 µg/mL (B16 melanocytes [3]; 30 mg/L): 12.1 ± 1.3%
